Data on 32 molecules can be found in EP0528699B1, “Saishin N derivatives, process for their preparation and anti-ulcer agents containing them” (TOKYO TANABE COMPANY LIMITED, priority 1991, dated 1993).

This test relates to Hydrochloric acid-Ethanol-Induced Ulcers. The experiment in a line: Hydrochloric acid-Ethanol-Induced Ulcers. Type of test: in vivo, male Wister rats. The settings on record: for inhibition in vivo at 20 mg/kg / inhibition in vivo at 5 mg/kg / inhibition in vivo at 10 mg/kg: Rattus norvegicus, intraduodenal, read-out: Inhibition ratio(%); for inhibition in vivo at 20 mg/kg: 3 h; for inhibition in vivo at 5 mg/kg / inhibition in vivo at 10 mg/kg: 1 h, Table 2; for inhibition in vivo at 5 mg/kg: dose 5 mg/kg intraduodenally one hour before hydrochloric acid - 60% ethanol; for inhibition in vivo at 10 mg/kg: dose 10 mg/kg intraduodenally one hour before hydrochloric acid - 60% ethanol. The method, then: Experiments on Hydrochloric acid-Ethanol-Induced Ulcers, Aspirin-Induced Ulcers, Water-Immersion stress-Induced Ulcers, Shay's Ulcers and Serotonin-Induced Ulcers were carried out using male Wister rats weighing about 200g in groups of six. Experiments on Ischemia-Reperfusion -Induced Gastric Lesions were carried out using male SD rats weighing about 250g in groups of six. Other than for the tests on Ischemia-Reperfusion-Induced Gastric Lesions Models, the test compounds were prepared by mixing thoroughly with polyethyleneglycol and 0.5% sodium carboxymethyl cellulose solution and emulsifying vigorously. Activities against respective ulcer models were evaluated by an inhibiting ratio obtained by dividing the difference between the ulceration indexes of the non-administered group and the test compound group by the non-administered group.
To each rat which had been fasted for 24 hours was orally administered 0.5ml of a mixed solution of 150 mM hydrochloric acid - 60% ethanol per 100g of weight. Each rat was slaughtered after one hour, a length of ulcer formed at the fundus gland area of stomach was measured and ulceration index was calculated based on the length. The test compound was administered intraduodenally one hour or three hours before the administration of mixed solution of hydrochloric acid - 60% ethanol.

[1] abbreviates: Table 1, dose 20 mg/kg intraduodenally three hours before hydrochloric acid - 60% ethanol.

Marks after values point to notes of the source that are not given here.

For the molecule `COC1C=C(C)C(=O)CC(C)(C)C1OC(=O)c1ccc2nc(N)[nH]c2c1` (stereo not shown) [AU415, 5-(2-aminobenzimidazolyl-5-carbonyloxy)-4-methoxy-2,6,6-trimethyl-2-cyclohepten-1-one], the inhibition in vivo at 20 mg/kg under setting [1] turned out to be 30%.

Consider `CC1=CC(OC(=O)C=Cc2ccccc2)C(O)C(C)(C)CC1=O` (stereo not shown) [AU206, 4-cinnamoyloxy-5-hydroxy-2,6,6-trimethyl-2-cyclohepten-1-one], for which the inhibition in vivo at 20 mg/kg under setting [1] came to 72%.

Take `COC12CC(C)(C)C(O1)C(OCc1ccccc1)C=C2C` (stereo not shown) [AU157, 1-methoxy-4-benzyloxy-2,6,6-trimethyl-8-oxabicyclo [3.2.1] oct-2-ene]: the inhibition in vivo at 5 mg/kg was found to be 64%.

With `COC1C(OC(=O)c2ccc(N)cc2)C=C(C)C(=O)CC1(C)C` (stereo not shown) [AU239, 4-(4-aminobenzoyloxy)-5-methoxy-2,6,6-trimethyl-2-cyclohepten-1-one], the inhibition in vivo at 20 mg/kg under setting [1] was found to be 41%.

Regarding `CC1=CC(O)C(OC(=O)c2ccc(N)cc2)C(C)(C)CC1=O` (stereo not shown) [AU216, 5-(4-aminobenzoyloxy)-4-hydroxy-2,6,6-trimethyl-2-cyclohepten-1-one], the inhibition in vivo at 20 mg/kg under setting [1] was determined as 23%.

For the molecule `COC12CC(C)(C)C(O1)C(OC(=O)C=Cc1ccc(O)cc1)C=C2C` (stereo not shown) [AU508, 4-(4-hydroxycinnamoyloxy)-1-methoxy-2,6,6-trimethyl-8-oxabicyclo [3.2.1] oct-2-ene], the inhibition in vivo at 20 mg/kg under setting [1] amounted to 82%.

On to `COc1ccc(COC2C=C(C)C(=O)CC(C)(C)C2O)cc1` (stereo not shown) [AUM09, 5-hydroxy-4-(4-methoxybenzyloxy)-2,6,6-trimethyl-2-cyclohepten-1-one], for which the inhibition in vivo at 20 mg/kg under setting [1] came to 17%.

Take `CC1=CC(OC(=O)c2cccc(N)c2)C(O)C(C)(C)CC1=O` (stereo not shown) [AU210, 4-(3-aminobenzoyloxy)-5-hydroxy-2,6,6-trimethyl-2-cyclohepten-1-one]: the inhibition in vivo at 20 mg/kg under setting [1] is 26%.

On to `CC1CC(O)C2OC1(OC(=O)c1ccc(N)cc1)CC2(C)C` (stereo not drawn) [AU251, 2,4-cis-1-(4-aminobenzoyloxy)-2,6,6-trimethyl-8-oxabicyclo [3.2.1] octan-4-ol], for which the inhibition in vivo at 20 mg/kg under setting [1] worked out at 30%.

As for `CC(=O)Nc1cccc(C(=O)OC2C(OC(C)=O)C=C(C)C(=O)CC2(C)C)c1` (stereo not shown) [AU224, 5-(3-acetamidobenzoyloxy)-4-acetoxy-2,6,6-trimethyl-2-cyclohepten-1-one], the inhibition in vivo at 20 mg/kg under setting [1] is 47%.

`CC(=O)OC1C(OC(=O)c2cccc(Cl)c2)CC(C)C(=O)CC1(C)C` (stereo not drawn) [AU199, 2,4-cis-5-acetoxy-4-(3-chlorobenzoyloxy)-2,6,6-trimethylcycloheptan-1-one]: under setting [1], the inhibition in vivo at 20 mg/kg was determined as 29%.

As to `CC(=O)OC1CC(C)C(=O)CC(C)(C)C1OC(=O)c1ccccc1` (stereo not drawn) [AU192, 2,4-cis-4-acetoxy-5-benzoyloxy-2,6,6-trimethylcycloheptan-1-one], the inhibition in vivo at 20 mg/kg under setting [1] is 49%.

In the case of `CC1=CC(OC(=O)c2cccc([N+](=O)[O-])c2)C(O)C(C)(C)CC1=O` (stereo not shown) [AU200, 5-hydroxy-4-(3-nitrobenzoyloxy)-2,6,6-trimethyl-2-cyclohepten-1-one], the inhibition in vivo at 20 mg/kg under setting [1] is 50%.

Take `COC12CC(C)(C)C(O1)C(O)CC2C` (stereo not drawn) [AU105A, 2,4-trans-1-methoxy-2,6,6-trimethyl-8-oxabicyclo [3.2.1] octan-4-ol]: under “Table 1, dose 20 mg/kg intraduodenally three hours before hydrochloric acid - 60% ethanol, 20 mg/kg”, the “Inhibition ratio(%)” value is listed as 44* %.

In the case of `CC(=O)OC1C(OC(=O)c2ccccc2)C=C(C)C(=O)CC1(C)C` (stereo not shown) [AU193, 5-acetoxy-4-benzoyloxy-2,6,6-trimethyl-2-cyclohepten-1-one], the inhibition in vivo at 20 mg/kg under setting [1] turned out to be 60%.

Turning to `COC12CC(C)(C)C(O1)C(OC(C)=O)CC2C` (stereo not drawn) [AU108A, 2,4-trans-1-methoxy-4-acetoxy-2,6,6-trimethyl-8-oxabicyclo [3.2.1] octane], the inhibition in vivo at 10 mg/kg came out at 75%. Besides, the inhibition in vivo at 20 mg/kg under setting [1] amounted to 55%.

With `COC1CC(C)(C)C(OC)C(OC)C=C1C` (stereo not shown) [AU113, 1,4,5-trimethoxy-2,6,6-trimethyl-2-cycloheptene], under setting [1], the inhibition in vivo at 20 mg/kg was 39%.

Regarding `CC1CC(O)C2OC1(OC(=O)c1ccccc1)CC2(C)C` (stereo not drawn) [AU252, 2,4-cis-1-benzoyloxy-2,6,6-trimethyl-8-oxabicyclo [3.2.1] octan-4-ol], under setting [1], the inhibition in vivo at 20 mg/kg came to 31%.

In the case of `CC1=CC(O)C(OC(=O)c2nc[nH]c2C)C(C)(C)CC1=O` (stereo not shown) [AU504, 4-hydroxy-5-(5-methyl-4-imidazolylcarbonyloxy)-2,6,6-trimethyl-2-cyclohepten-1-one], the inhibition in vivo at 20 mg/kg under setting [1] is 39%.

As to `COC1C=C(C)C2(OC)CC(C)(C)C1O2` (stereo not shown) [AU155, 1,4-dimethoxy-2,6,6-trimethyl-8-oxabicyclo [3. 2. 1] oct-2-ene], the inhibition in vivo at 5 mg/kg amounted to 93% and the inhibition in vivo at 10 mg/kg was 96%.

In the case of `CC1CC(O)C2OC1(OC(=O)c1ccc([N+](=O)[O-])cc1)CC2(C)C` (stereo not drawn) [AU250, 2,4-cis-1-(4-nitrobenzoyloxy):2,6,6-trimethyl-8-oxabicyclo [3.2.1] octan-4-ol], under setting [1], the inhibition in vivo at 20 mg/kg is 36%.

Take `CC1=CC(OCc2ccccc2)C(O)C(C)(C)CC1=O` (stereo not shown) [AU156, 4-benzyloxy-5-hydroxy-2,6,6-trimethyl-2-cyclohepten-1-one]: the inhibition in vivo at 10 mg/kg is 97%.

With `CC1=CC(O)C(OC(=O)c2cccc(N)c2)C(C)(C)CC1=O` (stereo not shown) [AU209, 5-(3-aminobenzoyloxy)-4-hydroxy-2,6,6-trimethyl-2-cyclohepten-1-one], under setting [1], the inhibition in vivo at 20 mg/kg came to 38%.

Turning to `CC1=CC(OC(=O)C=Cc2ccc(O)cc2)C(O)C(C)(C)CC1=O` (stereo not shown) [AU506, 5-hydroxy-4-(4-hydroxycinnamoyloxy)-2,6,6-trimethyl-2-cyclohepten-1-one], the inhibition in vivo at 20 mg/kg under setting [1] is 81%.

Take `CC(=O)OC1C=C(C)C(=O)CC(C)(C)C1OC(=O)c1ccccc1` (stereo not shown) [AU189, 4-acetoxy-5-benzoyloxy-2,6,6-trimethyl-2-cyclohepten-1-one]: the inhibition in vivo at 20 mg/kg under setting [1] worked out at 63%.

Take `COc1ccc(COC2CC(C)C(=O)CC(C)(C)C2OC(=O)c2ccccc2)cc1` (stereo not drawn) [AU187, 2,4-cis-5-benzoyloxy-4-(4-methoxybenzyloxy)-2,6,6-trimethylcycloheptan-1-one]: the inhibition in vivo at 20 mg/kg under setting [1] is 35%.

In the case of `CC1=CC(O)C(OC(=O)c2ccc([N+](=O)[O-])cc2)C(C)(C)CC1=O` (stereo not shown) [AU211, 4-hydroxy-5-(4-nitrobenzoyloxy)-2,6,6-trimethyl-2-cyclohepten-1-one], the inhibition in vivo at 20 mg/kg under setting [1] is 38%.

On to `COC1C(OC(=O)c2ccccc2)C=C(C)C(=O)CC1(C)C` (stereo not shown) [AU223, 4-benzoyloxy-5-methoxy-2,6,6-trimethyl-2-cyclohepten-1-one], for which the inhibition in vivo at 20 mg/kg under setting [1] came out at 49%.

In the case of `COC1C=C(C)C(=O)CC(C)(C)C1OC(=O)c1ccccc1C(=O)O` (stereo not shown) [AU218, 5-(2-carboxybenzoyloxy)-4-methoxy-2,6,6-trimethyl-2-cyclohepten-1-one], under setting [1], the inhibition in vivo at 20 mg/kg worked out at 34%.

For the molecule `CC(=O)OC1C(OC(=O)c2ccccc2)CC(C)C(=O)CC1(C)C` (stereo not drawn) [AU194, 2,4-cis-5-acetoxy-4-benzoyloxy-2,6,6-trimethylcycloheptan-1-one], the inhibition in vivo at 20 mg/kg under setting [1] amounted to 23%.

On to `COc1ccc(COC2CC(C)C(=O)CC(C)(C)C2OC(C)=O)cc1` (stereo not drawn) [AU185, 2,4-cis-5-acetoxy-4-(4-methoxybenzyloxy)-2,6,6-trimethylcycloheptan-1-one], for which, under setting [1], the inhibition in vivo at 20 mg/kg was 34%.

Turning to `CC1=CC(OC(=O)c2ccc(N)cc2N)C(O)C(C)(C)CC1=O` (stereo not shown) [AU242, 4-(2,4-diaminobenzoyloxy)-5-hydroxy-2,6,6-trimethyl-2-cyclohepten-1-one], under setting [1], the inhibition in vivo at 20 mg/kg came out at 60%.
